{
  "source": "BindingDB's records for doi:10.1021/jm020955n",
  "about": "(Johannes Gutenberg-Universität, 2002)",
  "data": [
    {"molecular_target": "Glutamate receptor ionotropic, NMDA 1 glycine site (Sus scrofa)", "assay": "Tested for the affinity for the glycine binding site of the N-methyl-D-aspartate glutamate receptor using pig brain membranes in binding assay with [3H]-MDL- 105,519", "units": {"Ki": "nM"}, "values": [
      {"compound": "O=C(O)c1[nH]c2cc(Cl)cc(Cl)c2c1Cn1cc(O)n(-c2ccc(Cl)cc2)c1=O", "note": "[4,6-Dichloro-3-[3-(4-chloro-phenyl)-2,4-dioxo-imidazolidin-1-ylmethyl]-1H-indole-2-carboxylic acid]", "Ki": 120},
      {"compound": "O=C(O)c1[nH]c2cc(Cl)cc(Cl)c2c1CNS(=O)(=O)c1ccccc1", "note": "[3-(Benzenesulfonylamino-methyl)-4,6-dichloro-1H-indole-2-carboxylic acid]", "Ki": 990},
      {"compound": "CC(=O)c1cccc(-n2c(O)cn(Cc3c(C(=O)O)[nH]c4cc(Cl)cc(Cl)c34)c2=O)c1", "note": "[3-[3-(3-Acetyl-phenyl)-2,4-dioxo-imidazolidin-1-ylmethyl]-4,6-dichloro-1H-indole-2-carboxylic acid]", "Ki": 57},
      {"compound": "Cc1c(O)n(-c2ccccc2)c(=O)n1Cc1c(C(=O)O)[nH]c2cc(Cl)cc(Cl)c12", "note": "[4,6-Dichloro-3-(5-methyl-2,4-dioxo-3-phenyl-imidazolidin-1-ylmethyl)-1H-indole-2-carboxylic acid]", "Ki": 310},
      {"compound": "COc1ccc(-n2c(O)cn(Cc3c(C(=O)O)[nH]c4cc(Cl)cc(Cl)c34)c2=O)cc1", "note": "[4,6-Dichloro-3-[3-(4-methoxy-phenyl)-2,4-dioxo-imidazolidin-1-ylmethyl]-1H-indole-2-carboxylic acid]", "Ki": 100},
      {"compound": "O=C(O)c1[nH]c2cc(Cl)cc(Cl)c2c1Cn1cc(O)n(-c2ccc(F)cc2)c1=O", "note": "[4,6-Dichloro-3-[3-(4-fluoro-phenyl)-2,4-dioxo-imidazolidin-1-ylmethyl]-1H-indole-2-carboxylic acid]", "Ki": 53},
      {"compound": "CC(C)n1c(O)cn(Cc2c(C(=O)O)[nH]c3cc(Cl)cc(Cl)c23)c1=O", "note": "[4,6-Dichloro-3-(3-isopropyl-2,4-dioxo-imidazolidin-1-ylmethyl)-1H-indole-2-carboxylic acid]", "Ki": 1050},
      {"compound": "O=C(O)c1[nH]c2cc(Cl)cc(Cl)c2c1Cn1cc(O)n(C2CCCCC2)c1=O", "note": "[4,6-Dichloro-3-(3-cyclohexyl-2,4-dioxo-imidazolidin-1-ylmethyl)-1H-indole-2-carboxylic acid]", "Ki": 130},
      {"compound": "O=C(NCc1c(C(=O)O)[nH]c2cc(Cl)cc(Cl)c12)NS(=O)(=O)c1ccccc1", "note": "[4,6-dichloro-3-[({[(phenylsulfonyl)amino]carbonyl}amino)methyl]-1H-indole-2-carboxylic acid]", "Ki": 72},
      {"compound": "CCn1c(O)cn(Cc2c(C(=O)O)[nH]c3cc(Cl)cc(Cl)c23)c1=O", "note": "[4,6-Dichloro-3-(3-ethyl-2,4-dioxo-imidazolidin-1-ylmethyl)-1H-indole-2-carboxylic acid]", "Ki": 1000},
      {"compound": "CC(=O)c1ccc(-n2c(O)cn(Cc3c(C(=O)O)[nH]c4cc(Cl)cc(Cl)c34)c2=O)cc1", "note": "[3-[3-(4-Acetyl-phenyl)-2,4-dioxo-imidazolidin-1-ylmethyl]-4,6-dichloro-1H-indole-2-carboxylic acid]", "Ki": 150},
      {"compound": "O=C(O)c1[nH]c2cc(Cl)cc(Cl)c2c1Cn1cc(O)n(-c2cccc(Cl)c2)c1=O", "note": "[4,6-Dichloro-3-[3-(3-chloro-phenyl)-2,4-dioxo-imidazolidin-1-ylmethyl]-1H-indole-2-carboxylic acid]", "Ki": 85},
      {"compound": "Cc1ccc(-n2c(O)cn(Cc3c(C(=O)O)[nH]c4cc(Cl)cc(Cl)c34)c2=O)cc1", "note": "[4,6-Dichloro-3-(2,4-dioxo-3-p-tolyl-imidazolidin-1-ylmethyl)-1H-indole-2-carboxylic acid]", "Ki": 36},
      {"compound": "O=C(O)c1[nH]c2cc(Cl)cc(Cl)c2c1CNCc1ccccc1", "note": "[3-(Benzylamino-methyl)-4,6-dichloro-1H-indole-2-carboxylic acid]", "Ki": 92000},
      {"compound": "O=C(O)c1[nH]c2cc(Cl)cc(Cl)c2c1Cn1cc(O)n(-c2ccccc2)c1=S", "note": "[4,6-Dichloro-3-(4-oxo-3-phenyl-2-thioxo-imidazolidin-1-ylmethyl)-1H-indole-2-carboxylic acid]", "Ki": 580},
      {"compound": "O=C(O)c1cc2c(Cl)cc(Cl)cc2[nH]1", "Ki": 2900},
      {"compound": "O=C(NCc1c(C(=O)O)[nH]c2cc(Cl)cc(Cl)c12)Nc1ccccc1", "note": "[4,6-Dichloro-3-[(3-phenyl-ureido)-methyl]-1H-indole-2-carboxylic acid]", "Ki": 14},
      {"compound": "O=C(O)c1[nH]c2cc(Cl)cc(Cl)c2c1Cn1cc(O)n(-c2cc(Cl)cc(Cl)c2)c1=O", "note": "[4,6-Dichloro-3-[3-(3,5-dichloro-phenyl)-2,4-dioxo-imidazolidin-1-ylmethyl]-1H-indole-2-carboxylic acid]", "Ki": 80},
      {"compound": "O=C(O)c1[nH]c2cc(Cl)cc(Cl)c2c1CN1CCN(c2ccccc2)C1=O", "note": "[4,6-Dichloro-3-(2-oxo-3-phenyl-imidazolidin-1-ylmethyl)-1H-indole-2-carboxylic acid]", "Ki": 58},
      {"compound": "O=C(O)c1[nH]c2cc(Cl)cc(Cl)c2c1Cn1cc(O)n(-c2ccccc2)c1=O", "note": "[4,6-Dichloro-3-(2,4-dioxo-3-phenyl-imidazolidin-1-ylmethyl)-1H-indole-2-carboxylic acid]", "Ki": 22}
    ]}
  ]
}
